Non-standard residues stand in square brackets, D forms with d. Residues, ends and D or L forms follow the SMILES beside them. Phg = N[C@H](C(=O)O)c1ccccc1; Tle = CC(C)(C)[C@H](N)C(=O)O; βAla = NCCC(=O)O
Experiments:
CD1 mice = assay: Intestinotrophic activity assessment: small bowel weight in mice; format: in vivo; details: for % Increase in small bowel weight: CD1 mice, 2.5 μg peptide s.c. b.i.d. in PBS, sacrificed 10 or 14 days, relative to vehicle only; for % Activity (small bowel inducing activity relative to native rat GLP-2(1-33) = 100%): mice, as Example 4
Method in brief: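 Female CD1 mice, 6 weeks old (n=3-4/group), given 2.5 μg peptide s.c. b.i.d. in PBS; sacrificed 10 or 14 days later after ≥20 h fast. Small bowel (pylorus to cecum) weighed; percent change versus vehicle mice, also expressed relative to rat GLP-2(1-33) set as 100%.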

DPP-IV = DPP-IV (Homo sapiens, UniProt P27487); assay: Assay for resistance to dipeptidyl peptidase IV (RP-HPLC of cleavage product); details: human, isolated human placental DPP-IV (dipeptidyl peptidase IV)
Sequence of DPP-IV (P27487 whole entry): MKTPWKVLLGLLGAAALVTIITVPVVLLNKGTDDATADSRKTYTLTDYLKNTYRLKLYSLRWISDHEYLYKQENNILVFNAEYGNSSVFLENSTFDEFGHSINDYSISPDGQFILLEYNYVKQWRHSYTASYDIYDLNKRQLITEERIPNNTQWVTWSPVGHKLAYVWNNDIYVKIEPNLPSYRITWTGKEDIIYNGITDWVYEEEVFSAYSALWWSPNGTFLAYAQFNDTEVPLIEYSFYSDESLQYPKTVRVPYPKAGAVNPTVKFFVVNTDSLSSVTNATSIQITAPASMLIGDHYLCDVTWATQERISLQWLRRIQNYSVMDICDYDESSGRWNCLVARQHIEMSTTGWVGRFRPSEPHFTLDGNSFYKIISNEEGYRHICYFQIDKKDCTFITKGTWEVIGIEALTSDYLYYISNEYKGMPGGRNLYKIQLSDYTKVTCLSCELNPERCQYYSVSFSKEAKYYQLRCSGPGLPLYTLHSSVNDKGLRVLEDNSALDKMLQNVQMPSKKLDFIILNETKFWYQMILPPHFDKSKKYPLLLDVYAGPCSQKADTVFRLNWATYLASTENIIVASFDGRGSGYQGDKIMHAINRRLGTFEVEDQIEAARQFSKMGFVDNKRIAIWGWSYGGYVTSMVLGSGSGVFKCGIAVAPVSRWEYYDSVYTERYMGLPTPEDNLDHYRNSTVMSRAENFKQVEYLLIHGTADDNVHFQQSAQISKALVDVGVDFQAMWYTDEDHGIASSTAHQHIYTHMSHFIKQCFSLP

human placental DPP-IV = human placental DPP-IV (Homo sapiens, UniProt P27487); assay: as above; details: human placental DPP-IV 0.125 mU, peptide 0.2 mg/ml, PBS pH 7.4, 37° C.
Sequence of human placental DPP-IV (P27487 whole entry): as above

Fisher 334 DPP-IV-rats = assay: Small bowel weight in DPP-IV deficient Fisher rats; format: in vivo; details: 20 μg b.i.d. s.c. in PBS, vs vehicle
Description: (§1) The following experiments were conducted to confirm that the increase in bowel weight seen in experimental animals treated with DPP-IV resistant analogs of GLP-2, compared with animals treated with wild-type GLP-2, was attributable in part to the DPP-IV resistant nature of the molecules. This experiment took advantage of the availability of a DPP-IV deficient rat strain, Fisher 334 DPP-IV-rats. The effect of rGLP-2 injections on small bowel weight in the Fisher DPP-IV deficient rats was compared to that in normal Sprague-Dawley rats.
(§2) In the following experiments the Sprague-Dawley rats were injected s.c. twice daily with rGLP-2 in the Gelatin formulation. The Fisher rats were injected s.c. twice daily with GLP-2 peptides (both rGLP-2, and rGLP-2 analogs) in PBS.

Sprague-Dawley rats = assay: Small bowel weight in normal Sprague-Dawley rats; format: in vivo; details: gelatin formulation, vs vehicle
Description: as §1, §2

[1] = test system: Fisher 344 wild-type rats; assay: Small bowel weight in Fisher 344 wild-type rats; format: in vivo; details: 20 μg b.i.d. s.c. in PBS, over vehicle control
Description: as §2

[2] = test system: dipeptidyl peptidase IV (DPP-IV); assay: human placental DPP-IV (Calbiochem), 0.125 mU, added to test peptide in PBS at pH 7.4; details: 37° C., up to 24 hours
[3] = pH 7.4, % Cleaved by DPP-IV, as Example 3: human placental DPP-IV, 37° C., PBS pH 7.4

## CC[C@H](C)[C@H](NC(=O)[C@H](Cc1ccccc1)NC(=O)[C@H](CC(=O)O)NC(=O)[C@H](CCCNC(=N)N)NC(=O)[C@@H](NC(=O)[C@H](C)NC(=O)[C@H](CC(C)C)NC(=O)[C@H](CC(N)=O)NC(=O)[C@H](CC(=O)O)NC(=O)[C@H](CC(C)C)NC(=O)[C@@H](NC(=O)[C@@H](NC(=O)[C@H](CC(N)=O)NC(=O)[C@H](CCSC)NC(=O)[C@H](CCC(=O)O)NC(=O)[C@H](CC(=O)O)NC(=O)[C@H](CO)NC(=O)[C@H](Cc1ccccc1)NC(=O)[C@H](CO)NC(=O)CNC(=O)[C@H](CC(=O)O)NC(=O)[C@@H](C)NC(=O)[C@@H](N)Cc1c[nH]cn1)[C@@H](C)O)[C@@H](C)CC)[C@@H](C)O)C(=O)N[C@@H](CC(N)=O)C(=O)N[C@@H](Cc1c[nH]c2ccccc12)C(=O)N[C@@H](CC(C)C)C(=O)N[C@H](C(=O)N[C@@H](CCC(N)=O)C(=O)N[C@H](C(=O)N[C@@H](CCCCN)C(=O)N[C@H](C(=O)N[C@H](C(=O)N[C@@H](CC(=O)O)C(=O)O)[C@@H](C)O)[C@@H](C)CC)[C@@H](C)O)[C@@H](C)CC [[DAla2]ratGLP-2(1-33)] (H-H[dA]DGSFSDEMNTILDNLATRDFINWLIQTKITD-OH)
CD1 mice
  % Increase in small bowel weight: 86%
  % Activity (small bowel inducing activity relative to native rat GLP-2(1-33) = 100%): 210%
DPP-IV; [3]
  metabolised at 24 h, 0.19 mg/ml: 0%
Human placental DPP-IV
  cleaved by DPP-IV after the 24 hour incubation: No cleavage products were detected

## H-HADGSFSDEMNTILDNLATRDFINWLIQTKITD-OH [ratGLP-2(1-33), reference compound]
Fisher 334 DPP-IV-rats
  increase in % change in small bowel weight: 40-50%
Sprague-Dawley rats; 2.5 μg b.i.d. s.c.
  % change in small bowel weight: no % change
Sprague-Dawley rats; 25 μg b.i.d. s.c.
  % change in small bowel weight: no % change
CD1 mice
  % Increase in small bowel weight: 45%
  % Activity (small bowel inducing activity relative to native rat GLP-2(1-33) = 100%): 100%
DPP-IV; [3]
  metabolised at 24 h, 0.19 mg/ml: 58%
DPP-IV; pH 7.4, cleaved by DPP-IV after the 24 hour incubation, human placental DPP-IV 0.125 mU, peptide 0.2 mg/ml, PBS pH 7.4, 37° C.
  metabolised at 24 h, 0.19 mg/ml: 22%

## H-HGDGSFSDEMNTILDNLATRDFINWLIQTKITD-OH [[Gly2]ratGLP-2(1-33)]
Fisher 334 DPP-IV-rats
  increase in % change in small bowel weight: 50-60%
[1]
  increase in small bowel weight: 75-85%
CD1 mice
  % Increase in small bowel weight: 70%
  % Activity (small bowel inducing activity relative to native rat GLP-2(1-33) = 100%): 196%
CD1 mice; comment on Table 1, CD1 mice
  intestinotrophic activity compared with the naturally occurring molecule / rGLP-2 (in words): greatly enhanced
DPP-IV; [3]
  metabolised at 24 h, 0.19 mg/ml: 0%
Human placental DPP-IV
  cleaved by DPP-IV after the 24 hour incubation: No cleavage products were detected

## [PhGly2]hGLP-2(1-33) (H-H[Phg]DGSFSDEMNTILDNLAARDFINWLIQTKITD-OH; SMILES CC[C@H](C)[C@H](NC(=O)[C@H](Cc1ccccc1)NC(=O)[C@H](CC(=O)O)NC(=O)[C@H](CCCNC(=N)N)NC(=O)[C@H](C)NC(=O)[C@H](C)NC(=O)[C@H](CC(C)C)NC(=O)[C@H](CC(N)=O)NC(=O)[C@H](CC(=O)O)NC(=O)[C@H](CC(C)C)NC(=O)[C@@H](NC(=O)[C@@H](NC(=O)[C@H](CC(N)=O)NC(=O)[C@H](CCSC)NC(=O)[C@H](CCC(=O)O)NC(=O)[C@H](CC(=O)O)NC(=O)[C@H](CO)NC(=O)[C@H](Cc1ccccc1)NC(=O)[C@H](CO)NC(=O)CNC(=O)[C@H](CC(=O)O)NC(=O)[C@@H](NC(=O)[C@@H](N)Cc1c[nH]cn1)c1ccccc1)[C@@H](C)O)[C@@H](C)CC)C(=O)N[C@@H](CC(N)=O)C(=O)N[C@@H](Cc1c[nH]c2ccccc12)C(=O)N[C@@H](CC(C)C)C(=O)N[C@H](C(=O)N[C@@H](CCC(N)=O)C(=O)N[C@H](C(=O)N[C@@H](CCCCN)C(=O)N[C@H](C(=O)N[C@H](C(=O)N[C@@H](CC(=O)O)C(=O)O)[C@@H](C)O)[C@@H](C)CC)[C@@H](C)O)[C@@H](C)CC)
[2]
  not cleaved: 0% cleaved by DPP-IV

## [Phe2]hGLP-2(1-33) (H-HFDGSFSDEMNTILDNLAARDFINWLIQTKITD-OH)
[2]
  not cleaved: 0% cleaved by DPP-IV

## [Pro1]hGLP-2(1-33) (H-PADGSFSDEMNTILDNLAARDFINWLIQTKITD-OH)
[2]
  not cleaved: 0% cleaved by DPP-IV

## [Pro3]hGLP-2(1-33) (H-HAPGSFSDEMNTILDNLAARDFINWLIQTKITD-OH)
[2]
  not cleaved: 0% cleaved by DPP-IV

## [Ser2]hGLP-2(1-33) (H-HSDGSFSDEMNTILDNLAARDFINWLIQTKITD-OH)
[2]
  not cleaved: 0% cleaved by DPP-IV

## [Thr2]hGLP-2(1-33) (H-HTDGSFSDEMNTILDNLAARDFINWLIQTKITD-OH)
[2]
  not cleaved: 0% cleaved by DPP-IV

## [Thr^19]hGLP-2(1-33) (H-HADGSFSDEMNTILDNLATRDFINWLIQTKITD-OH)
[2]
  cleaved bond: Ala2-Asp3, 24 hours

## [Tyr1, Gly2]hGLP-2(1-33) (H-YGDGSFSDEMNTILDNLAARDFINWLIQTKITD-OH)
[2]
  not cleaved: 0% cleaved by DPP-IV

## [Tyr2]hGLP-2(1-33) (H-HYDGSFSDEMNTILDNLAARDFINWLIQTKITD-OH)
[2]
  not cleaved: 0% cleaved by DPP-IV

## [Val2]GLP-2(1-33)
[2]
  not cleaved: 0% cleaved by DPP-IV

## [bAla2]hGLP-2(1-33) (H-H[βAla]DGSFSDEMNTILDNLAARDFINWLIQTKITD-OH; SMILES CC[C@H](C)[C@H](NC(=O)[C@H](Cc1ccccc1)NC(=O)[C@H](CC(=O)O)NC(=O)[C@H](CCCNC(=N)N)NC(=O)[C@H](C)NC(=O)[C@H](C)NC(=O)[C@H](CC(C)C)NC(=O)[C@H](CC(N)=O)NC(=O)[C@H](CC(=O)O)NC(=O)[C@H](CC(C)C)NC(=O)[C@@H](NC(=O)[C@@H](NC(=O)[C@H](CC(N)=O)NC(=O)[C@H](CCSC)NC(=O)[C@H](CCC(=O)O)NC(=O)[C@H](CC(=O)O)NC(=O)[C@H](CO)NC(=O)[C@H](Cc1ccccc1)NC(=O)[C@H](CO)NC(=O)CNC(=O)[C@H](CC(=O)O)NC(=O)CCNC(=O)[C@@H](N)Cc1c[nH]cn1)[C@@H](C)O)[C@@H](C)CC)C(=O)N[C@@H](CC(N)=O)C(=O)N[C@@H](Cc1c[nH]c2ccccc12)C(=O)N[C@@H](CC(C)C)C(=O)N[C@H](C(=O)N[C@@H](CCC(N)=O)C(=O)N[C@H](C(=O)N[C@@H](CCCCN)C(=O)N[C@H](C(=O)N[C@H](C(=O)N[C@@H](CC(=O)O)C(=O)O)[C@@H](C)O)[C@@H](C)CC)[C@@H](C)O)[C@@H](C)CC)
[2]
  not cleaved: 0% cleaved by DPP-IV

## [tBuGly2]hGLP-2 (H-H[Tle]DGSFSDEMNTILDNLAARDFINWLIQTKITD-OH; SMILES CC[C@H](C)[C@H](NC(=O)[C@H](Cc1ccccc1)NC(=O)[C@H](CC(=O)O)NC(=O)[C@H](CCCNC(=N)N)NC(=O)[C@H](C)NC(=O)[C@H](C)NC(=O)[C@H](CC(C)C)NC(=O)[C@H](CC(N)=O)NC(=O)[C@H](CC(=O)O)NC(=O)[C@H](CC(C)C)NC(=O)[C@@H](NC(=O)[C@@H](NC(=O)[C@H](CC(N)=O)NC(=O)[C@H](CCSC)NC(=O)[C@H](CCC(=O)O)NC(=O)[C@H](CC(=O)O)NC(=O)[C@H](CO)NC(=O)[C@H](Cc1ccccc1)NC(=O)[C@H](CO)NC(=O)CNC(=O)[C@H](CC(=O)O)NC(=O)[C@@H](NC(=O)[C@@H](N)Cc1c[nH]cn1)C(C)(C)C)[C@@H](C)O)[C@@H](C)CC)C(=O)N[C@@H](CC(N)=O)C(=O)N[C@@H](Cc1c[nH]c2ccccc12)C(=O)N[C@@H](CC(C)C)C(=O)N[C@H](C(=O)N[C@@H](CCC(N)=O)C(=O)N[C@H](C(=O)N[C@@H](CCCCN)C(=O)N[C@H](C(=O)N[C@H](C(=O)N[C@@H](CC(=O)O)C(=O)O)[C@@H](C)O)[C@@H](C)CC)[C@@H](C)O)[C@@H](C)CC)
[2]
  not cleaved: 0% cleaved by DPP-IV

Source: patent publication US8933039B2 (NPS Pharmaceuticals, Inc., priority 1995, dated 2015)
